Entries after “also recorded” stand apart in the source; their conditions may differ. Where two headings read alike, the source gives them in different places.
Legend:
[1] = tested on: GIST-T1 cell line; details: 16 h drug pre-treatment; for Percentage of TMRE positive cells, dose-response curve versus control: titration of combination A, 3 hours
[2] = tested on: GIST-T1 cell line; assay: Real-time tracking of apoptosis (RTA) with flow cytometry; format: cell-based; details: 16 h drug pre-treatment; titration of combination A, 3 hours
[3] = tested on: GIST-T1/670 cell line; assay: as above; format: cell-based; details: 16 h drug pre-treatment; titration of combination A, 3 hours
[4] = tested on: GIST-T1 cells; details: 16 h drug pre-treatment; combination A gradient generated by the device
[5] = tested on: GIST-T1/670 cell line; details: 16 h drug pre-treatment (imatinib 1000 nM, gefitinib 1000 nM); BIM peptide titration with digitonin
[6] = tested on: GIST-T1 cell line; details: 16 h drug pre-treatment (imatinib 1000 nM, gefitinib 1000 nM); BIM peptide titration with digitonin
[7] = tested on: GIST-T1/670 cell line; assay: RTA with fluorescence microscopy (TMRE); format: cell-based; details: 16 h drug pre-treatment; titration of combination A, 3 hours

Row | Compound | Percentage of TMRE positive cells, dose-response curve versus control [1] | Percentage of cytochrome c retained, dose-response curve versus control [2] | Percentage of cytochrome c retained, dose-response curve versus control [3] | Percentage of TMRE positive cells, dose-response curve versus control [4] | Percentage of cytochrome c retained, dose-response curve versus control [5] | Percentage of cytochrome c retained, dose-response curve versus control [6] | Percentage of TMRE positive cells, dose-response curve versus control [7] | Δ% priming ([1]; microscopy RTA with combination A)
1 | COc1cc2ncnc(Nc3ccc(F)c(Cl)c3)c2cc1OCCCN1CCOCC1 [gefitinib] | this was not observed | produced the same curve as the control conditions | produced the same curve as the control conditions | the same response | the same dose-response curve | showed a similar profile as the control | produced an unaltered curve | 
2 | Cc1ccc(NC(=O)c2ccc(CN3CCN(C)CC3)cc2)cc1Nc1nccc(-c2cccnc2)n1 [imatinib] | caused a shift of the curve identifying an increase in apoptotic priming; also recorded: induction of apoptotic priming |  |  |  |  |  | produced an unaltered curve | a clear increase in apoptotic priming; also recorded: increase of apoptotic priming

From patent US20260259195A1, “REAL-TIME TRACKING OF APOPTOSIS” (FUNDACIÓ INSTITUT DE BIOENGINYERIA DE CATALUNYA (IBEC), priority 2022, published 2026)
